What was measured:
HUVEC [1] = experiment: Wound healing migration assay; assay type: cell-based, human; conditions: various concentrations; 24 hours
Source text: (§1) Cell migration is essential for ECs in angiogenesis and for cancer cells in tumor growth and metastasis. […] Cell invasion is essential for EC in angiogenesis, so we performed transwell assays to evaluate the ability of HUVEC to pass through the Matrigel and membrane barriers of the transwell in the presence of various concentrations of YLT192 or vehicle.
Figure 2 Effects of YLT192 on HUVECs proliferation, migration, invasion and tube formation. […] Cells were wounded by the pipette and then treated with various concentrations of compounds for 24 hours. Migrated cells were quantified by manual counting (50×). […] The bottom chambers of the transwells were filled with 600 μL EGM2 containing various growth factors while the top chambers were seeded with 4 × 10^4 HUVECs in EBM2 and treated with different concentrations of compounds for 24 hours. Cells invaded through the membrane were stained and quantified (100×). […] HUVECs were seeded on Matrigel layer and treated with different concentrations of compounds. HUVECs tube formation was assessed 6 hours later (50×). One representative experiment of three is shown. For (A), (B) and (C), data represent the mean ± SEM of three different experiments. Each experiment was performed in duplicate.*P < 0.05, **P < 0.01. (D) YLT192 inhibited VEGF-induced phosphorylation of VEGFR2 and its downstream signal regulator p44/42 MAPK, STAT3 and AKT in HUVECs. One representative Western blot of three is presented. Each has the expression of β-actin as internal control. The full size blots were shown in the Supplemental Figure S5 online. (E) Cellular thermal shift assay showing VEGFR2 target engagement by YLT192 in intact HUVECs. One representative Western blot of two is presented. The full size blots were shown in the Supplemental Figure S6 online. […]
(§2) HUVECs were allowed to grow into full confluence in 24-well plates and then wounded by scratching with pipette tips and washed with PBS. […] Images were taken using a ZEISS digital microscope and invading cells were counted by manual counting. […]

HUVEC [2] = experiment: Transwell invasion assay; assay type: cell-based, human; conditions: various concentrations; 24 hours; concentration-dependent
Source text: as §1
Figure 2 Effects of YLT192 on HUVECs proliferation, migration, invasion and tube formation. […] Cells were wounded by the pipette and then treated with various concentrations of compounds for 24 hours. Migrated cells were quantified by manual counting (50×). […] The bottom chambers of the transwells were filled with 600 μL EGM2 containing various growth factors while the top chambers were seeded with 4 × 10^4 HUVECs in EBM2 and treated with different concentrations of compounds for 24 hours. Cells invaded through the membrane were stained and quantified (100×). […] HUVECs were seeded on Matrigel layer and treated with different concentrations of compounds. HUVECs tube formation was assessed 6 hours later (50×). One representative experiment of three is shown. […]
as §2

HUVEC [3] = experiment: Capillary-like tube formation assay; assay type: cell-based, human; conditions: designed concentrations; 6 hours; Matrigel
Experimental: To elucidate the possible mechanisms of angiogenesis inhibition, tube formation ability of ECs, which is a critical step in the process of angiogenesis, was assessed in HUVEC in vitro.
The anti-angiogenesis ability of YLT192 in vitro was evaluated using capillary tube formation assay as described previously. Briefly, 96-well plate was pre-incubated with Matrigel at 37°C for 45 minutes. Then HUVECs (2 × 10^4 cells) suspended in EGM2 medium were seeded onto the Matrigel. They were treated with various concentrations of YLT192. After 6 hours incubation at 37°C, tube formation was assessed with an OLYMPUS inverted digital camera in low power fields (50×). Vandetanib served as positive control. The assay was replicated 3 times.

[4] = cited from earlier work; for toxicities after single doses: rat, in vivo; for maximal tolerance dose (MTD): rats, ref http://www.accessdata.fda.gov/drugsatfda

COc1cc2c(Nc3ccc(Br)cc3F)ncnc2cc1OCC1CCN(C)CC1 [Vandetanib, reference compound]
HUVECs migration in wound healing assay (HUVEC [1]): inhibited HUVECs migration
invasion of HUVECs in transwell assay (HUVEC [2]): inhibted HUVECs invasion
tube formation of HUVEC (HUVEC [3]): inhibited HUVECs tube formation

CNC(=O)c1cc(Oc2ccc(NC(=O)Nc3ccc(Cl)c(C(F)(F)F)c3)cc2)ccn1 [sorafenib]
toxicities after single doses [4]: toxicities in the gastrointestinal tract and liver
maximal tolerance dose (MTD) [4]: 500 mg/kg

CCN(CC)CCNC(=O)c1c(C)[nH]c(/C=C2\C(=O)Nc3ccc(F)cc32)c1C [sunitinib]
toxicities after single doses [4]: toxicities in the gastrointestinal tract and liver
maximal tolerance dose (MTD) [4]: 500 mg/kg

From publication PMC4129416, “YLT192, a Novel, Orally Active Bioavailable Inhibitor of VEGFR2 Signaling with Potent Antiangiogenic Activity and Antitumor Efficacy in Preclinical Models” (Scientific Reports, 2014)
